This passage reports Ratio results from ChEMBL document CHEMBL1143075, “Taxanes from Shells and Leaves of Corylus avellana” (2008).

This test deals with SK-MES-1. The experiment in a line: Inhibition of metaphase to anaphase transition in human SKMes1 cells at 10 nM. The format is functional.

Regarding `CC(=O)O[C@H]1C(=O)[C@@]2(C)[C@H]([C@H](OC(=O)c3ccccc3)[C@]3(O)C[C@H](OC(=O)[C@H](O)[C@@H](NC(=O)c4ccccc4)c4ccccc4)C(C)=C1C3(C)C)[C@]1(OC(C)=O)CO[C@@H]1C[C@@H]2O` [PACLITAXEL], the Ratio is listed as 0.026.
